{"source": "paper PMC10987521", "about": "“An all-in-one tetrazine reagent for cysteine-selective labeling and bioorthogonal activable prodrug construction” (Nature Communications, 2024)", "key": {"B16F10 cells": {"system": "B16F10 cells", "test": "Comparison of cell uptake between RGD-Dox and Dox using flow cytometry", "format": "cell-based, Mouse", "procedure": "B16F10 cells were cultured for 48 h. […]\n12.1 Calculation of the fluorescence coefficient (F c)\nThe Fc was the radio calculated\n12.2 Uptake calculation of the B16F10 cells […]\ndeviation were analyzed using Origin Pro 2015.\nB16F10 cells, characterized by α vβ3\nFollowing the incubation period, the\nSubsequently, the cells were trypsinized and underwent three PBS rinses. […]"}, "B16F10 melanoma tumor": {"system": "B16F10 melanoma tumor", "test": "In vivo anticancer efficacy, subcutaneous B16F10 melanoma tumor model", "design": "species or system BALB/c nude mice", "conditions": "four i.v. courses, 3.67 μmol·kg^−1 (TCO-P4 36.7 μmol·kg^−1), n = 5", "procedure": "Tumor-bearing mice were established by subcutaneously injecting a suspension of 5 × 10^5 B16F10 cells per mouse into the front flank of each nude mouse. When tumor volume reached 50−70 mm^3, the animals were randomly divided into five groups (n = 5). The mice were administered different compounds suspended in PBS via the tail vein every 3 days for a total of four times.\nThe mice underwent four treatment courses on day 0, day 3, day 6, and day 9. Tumor size and body weight were measured every day. Tumor volume was calculated via the following formula: V = 1/2 × (minor axis) × (major axis)[2].\nAfter 12 days, the mice were sacrificed and dissected to obtain tumor tissues and main organs, including heart, liver, spleen, lung, and kidney. Subsequently, all tissues were fixed in a 4% paraformaldehyde solution, routinely paraffin-embedded and sectioned, and then stained with hematoxylin and eosin, as well as using TdT-mediated dUTP nick-end labeling (TUNEL) for subsequent pathological analysis. TUNEL-positive cells appeared fluorescent green, representing the apoptosis of tumor cells (nuclei were fluorescent blue, stained with DAPI).\n13. In vivo anticancer efficacy […]\n13.2 Calculation of the tumor growth inhibition values (TGI)\nTumor growth inhibition values (TGI) were calculated using the following formula: TGI (%) = (1 − RTVtreatment/\nRTVcontrol)*100. RTV refers to relative tumor volume, representing the ratio of the volume at the end of treatment to the\nvolume at the beginning of treatment. […]"}, "[1]": {"test": "Nano-structure characterization of peptide conjugates (Tyndall effect, DLS, zeta potential, TEM)", "format": "physicochemical", "conditions": "50 μM in H2O (2% DMSO), sonicated 10 min; mean of 3 measurements", "procedure": "The second-order rate constant for the labeling reactions between tetrazine 1 and Cys was determined at 25 °C in PB (30% MeCN, 20 mM, pH 8.0) under second-order conditions using a 6000+ (Quawell) UV-Vis spectrophotometer. The concentrations of cysteine and tetrazine were identical. The specific difference in absorption wavelength (300 nm) between 1 and Cys-1 was measured over time. The second-order rate constant k2 was calculated from the slope of a plot of (1/c – 1/c0) versus time.\n5. Competitive labeling reaction with other nucleophilic amino acids\nFor the competitive labeling experiment, 10 equiv. (2 mM) of N-Fmoc-Lys, N-Fmoc-Arg, Ser, Tyr, and 1.3 equiv. […] The resulting solution was maintained at 25 °C and monitored by LC –MS. […]\nEach voTz analogue (1.1 equiv.) was added to a 0.25 mL vial containing solvent. […] The chromatogram peak areas of all relevant Cys -containing species were integrated, and the yiel d was determined using the following equation: Yield (%) = Iproduct/(Istarting + Iproduct + Ioxidation + Iside product) × 100, where Istarting, Iproduct, Ioxidation, and Iside product respectively represent the average ion counts of remaining starting material, product, oxidized starting material and any side product, if present 2. […]\nDLS analyses and particle zeta potential values were determined using a Nano ZS ZEN 3690 instrument (Malvern […]"}}, "note": "“Also recorded” adds a separate entry of the source.", "data": [{"smiles": "COc1cccc2c1C(=O)c1c(O)c3c(c(O)c1C2=O)C[C@@](O)(C(=O)CO)C[C@@H]3O[C@H]1C[C@H](NC(=O)OCc2nnc(CCSC[C@@H]3NC(=O)[C@@H](Cc4ccc(O)cc4)NC(=O)[C@H](CC(=O)O)NC(=O)CNC(=O)[C@H](CCCNC(=N)N)NC3=O)nn2)[C@H](O)[C@H](C)O1", "note": "[RGD-Dox]", "values": [{"measurement": "Normalized uptake", "setting": "B16F10 cells; normalized to Dox = 1, Data 1", "value": 22.44}, {"measurement": "Normalized uptake", "setting": "B16F10 cells; normalized to Dox = 1, Data 2", "value": 22.03}, {"measurement": "Normalized uptake", "setting": "B16F10 cells; normalized to Dox = 1, Data 3", "value": 17.85}, {"measurement": "tumor growth / inhibition in words", "setting": "B16F10 melanoma tumor", "value": "did not exhibit significant tumor inhibition; also recorded: rapid tumor growth"}, {"measurement": "average particle diameter (DLS)", "setting": "[1]", "value": 168, "unit": "nm"}]}]}
